The values below come from article PMC5897774, “Mitotic spindle association of TACC3 requires Aurora‐A‐dependent stabilization of a cryptic α‐helix” (The EMBO Journal, 2018).

Read-outs that look alike come from different tables or passages of the source. Residues, ends and D or L forms follow the SMILES beside them. No end group written: not given here.

The target in test [1] is T1, Aurora‐A (Homo sapiens, UniProt O14965, C290A/C393A).
T1 construct: pET30TEV Aurora‐A 122–403 C290A, C393A; made in house
T1 sequence (O14965 122-403 C290A/C393A): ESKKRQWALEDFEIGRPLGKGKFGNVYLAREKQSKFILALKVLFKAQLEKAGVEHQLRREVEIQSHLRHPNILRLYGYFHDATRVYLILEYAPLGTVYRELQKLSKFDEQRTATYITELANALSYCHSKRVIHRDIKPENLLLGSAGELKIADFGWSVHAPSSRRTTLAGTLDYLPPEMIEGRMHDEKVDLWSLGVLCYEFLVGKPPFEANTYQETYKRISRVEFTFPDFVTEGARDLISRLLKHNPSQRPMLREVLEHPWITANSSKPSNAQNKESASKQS
The test can be described thus: Radioactive 32P‐ATP kinase assay, MBP substrate. Type of test: biochemical. The settings on record: 0.625 μM phosphorylated Aurora‐A, 5 μM TACC3^N‐ACID, 0.25 mg/ml MBP, 10 min, scintillation counting, duplicate. Here is the method:
Figure EV2 Biochemical and structural analysis of the Aurora‐A/TACC3 complex • FP assay between FAM‐TACC3 519–570 and Aurora‐A. Reactions were performed in triplicate. Error bars represent standard deviation. […] Error bars represent standard deviation. […] This peptide was based on the location of a sulphate ion, originating from the crystallization solution, at the interface of the Aurora‐A/TACC3 interface in the crystal structure, close to TACC3 T534. […] Myelin basic protein (MBP) was used as a generic kinase substrate. Incorporation of radioisotope was measured by scintillation counting. Reactions were performed in duplicate. Error bars represent standard error. Assays were compared to the WT TACC3^N‐ACIDH6c reaction by one‐way ANOVA with Dunnett's post hoc test. […], **P < 0.01 and ****P < 0.0001. • Multiple sequence alignment of TACC3 (above) and Aurora‐A (below) orthologs spanning the interaction binding interface. Key binding residues are boxed in red. The TACC3 phosphorylation sites, S552 and S558, are boxed in blue. The TACC3 LL motif required for binding to CHC is boxed in green. The TACC3 α‐helix produced on binding to CHC is identified by a black line. TEXT PRINTED IN THE PICTURE: (A) TACC3 519-570: 3.0 ± 0.2 μM | (B) WT: 20 ± 1 μM | (B) R526A: 49 ± 2 μM | (B) phospho-T534: 14 ± 1 μM
Radioactive ^32P‐ATP kinase assays were performed as described previously (Burgess et al, 2015). In brief, 0.625 μM Aurora‐A^M3KD WT or selected mutant was incubated with 0.25 mg/ml MBP alone and in the presence of 5 μM TACC3^N‐ACID WT or mutant for 10 min. Reactions were terminated by the addition of 2% (v/v) orthophosphoric acid. Samples were spotted onto P81 Whatman paper, washed extensively with 0.2% (v/v) orthophosphoric acid and incorporation of radioisotope measured by scintillation counting.

Test [2] concerns mitotic spindle, HeLa cells. The test can be described thus: Spindle localization of re‐expressed GFP‐CHC constructs in CHC‐depleted HeLa cells. Type of test: cell-based, human. The settings on record: metaphase, endogenous CHC depleted, confocal imaging. Here is the method:
For RNAi and re‐expression of GFP‐tagged proteins in HeLa cells, siRNA and pBrain plasmids were used. Briefly, for TACC3, cells were transfected with siRNA on day 0, transfected 10 h later with pBrain plasmid and analysed on day 2. For CHC, cells were transfected with siRNA on day 0, transfected with pBrain plasmids on day 2 and fixed on day 4.
For immunofluorescence studies on the CHC/TACC3 interface mutants, cells were fixed with PTEMF (50 mM PIPES, pH 7.2, 10 mM EGTA, 1 mM MgCl2, 0.2% Triton X‐100, and 4% paraformaldehyde) for 15 min at RT, and then permeabilized (PBS with 0.1% Triton X‐100) for 10 min. Cells were blocked (PBS with 3% BSA, 5% goat serum) for 30 min, and then incubated for 1 h with the specified primary antibodies: mouse anti‐CHC (X22, Affinity BioReagents, 1:1,000), rabbit anti‐alpha tubulin (Thermo, PA5‐19489, 1:1,000), mouse anti‐TACC3 (AbCam, ab56595, 1:1,000). Secondary antibodies labelled with Alexa Fluor 568 or Alexa Fluor 647 from Life Technologies (diluted 1:500) were used along with DAPI. […] Equal exposure settings and scaling were used between conditions.
For spindle enrichment analysis, mean pixel density in two 10 × 10 pixel ROI was measured either over the spindle (away from poles), in the cytoplasm or in a non‐cell region of background, using ImageJ. Background was subtracted from the spindle and cytoplasm measurements, and spindle fluorescence was then divided by cytoplasm fluorescence. Sample sizes 48–53 cells (TACC3) and 36–51 cells (CHC) over two experiments were analysed per condition. […] Differences in spindle recruitment were evident at all expression levels. IgorPro was used to find and plot the ratio of spindles to cytoplasmic fluorescence intensity per cell. Images were cropped in ImageJ, and figures were assembled in Adobe Illustrator. Some images were contrast adjusted for presentation.

In test [3] the target is T1, Aurora‐A. The test can be described thus: FP binding assay, FAM-TACC3 peptides to Aurora‐A (WT). The settings on record: fluorescence polarization. As for the experimental part: The contributions of the site 1 residues to the interaction were quantified using fluorescence polarization spectroscopy (FP) with a set of fluorescein (FAM)‐labelled peptides. […] Mutations within the pocket on Aurora‐A which accommodates the F525 side chain (E134A, R137A, L149A, R151A and I158A mutations) all reduced the affinity for the WT TACC3 522–536 peptide.
Aurora‐A/TACC3 fluorescence polarization assays were performed as stated (Richards et al, 2016) using FAM‐TACC3 peptides (PPR, Cambridge; Almac, Craigavon). Binding assays were performed in triplicate. FP signal was fit to a one‐site total binding model in Prism 6 (GraphPad). Results are reported as K d ± SE.
On the technique in general: In fluorescence polarisation assays a small probe gives low polarisation when free and higher when bound to something large.

Test [4] concerns Aurora‐A KD (substrate: Aurora‐A D274N). The test can be described thus: Substrate phosphorylation of kinase‐dead Aurora‐A D274N by Aurora‐A KD (Western blot αphospho‐T288). The note with it: Aurora‐A D274N as substrate, 1 h, room temperature. Type of test: biochemical, human. The text has this: (§1) Figure 2 TACC3 523–534 forms a docking interaction on the N‐lobe of Aurora‐A • Magnified view of the site 1 interaction. • Schematic showing the key features of the TACC3/Aurora‐A interface. • FP assays of binding between site 1 of TACC3 and Aurora‐A. The sequence of TACC3 present in the complex crystal structure is shown (top) with the residues of the site 1 FP peptide coloured orange and mutated residues identified by coloured circles corresponding to the curves shown in the FP assay (below). Data represent mean of three experiments ± SD. […] Data represent mean of three experiments ± SD. […] Reactions were analysed by SDS–PAGE (above) and Western blotting with an αphospho‐T288 Aurora‐A antibody (below). […] They are listed as printed.
(§2) Autophosphorylation assays were performed as for radioactive ^32P‐ATP reactions using Aurora‐A 122–403 co‐expressed with lambda phosphatase for 1 h at room temperature with His‐Aurora‐A D274N as a substrate in replace of MBP. Reactions were resolved by SDS–PAGE and subject to Western blotting using an α‐phospho‐T288 Aurora‐A antibody (CST 2914, 1:2,000) as per the manufacturer's recommendation.
For orientation: A western blot detects proteins with antibodies after separation by electrophoresis.

The target of test [5] is T1, Aurora‐A. Also on record: method as in Burgess et al, 2015. The note with it: previous data, effect of F525A mutation; ref Burgess et al, 2015; read-out: K d of the interaction; cited from earlier work.
The test system of test [6] is unphosphorylated Aurora‐A KD. The test can be described thus: Autophosphorylation assay of unphosphorylated Aurora‐A KD (Western blot αphospho‐T288). Type of test: biochemical, human. The note with it: unphosphorylated Aurora‐A 122–403, 1 h, room temperature.
Source text: as §1, §2

For test [7], the target named is T2, FAM‐TACC3 549–570 phosphorylated on S558 (FAM‐phospho‐TACC3^CID) (human, UniProt Q9Y6A5 549-570, fluorescein (FAM) label; phosphoserine at 558).
T2 construct: TACC3, human, aa549–570 (TACC3^CID); also called pTACC3^CID; FAM‐labelled pTACC3^CID; source: FAM‐labelled peptide (FAM‐TACC3 peptides: PPR, Cambridge; Almac, Craigavon)
T2 peptide (looked up): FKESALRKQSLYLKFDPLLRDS
The test can be described thus: fluorescence polarisation; CHC proteins serially diluted in 20 mM HEPES–NaOH pH 7.5, 200 mM NaCl, 5 mM DTT; 50 nM FAM‐labelled TACC3 peptide; 30 min at room temperature; read at 25°C. The settings on record: both partners purified.

Take “TACC3^N‐ACID L532A: TACC3^N-ACID with L532A mutation (ELKEESFRDPAEVAGTGAEVDYLEQFGTSSFKESALRKQSLYLKF; not fully specified (C-terminus))”: in the test with Aurora‐A [1], the “stimulation of Aurora‐A activity” value was “twofold–threefold”.

As for “GFP‐CHC L503A, Y504A: GFP-CHC mutated in the TACC3 binding site”, in test [2], the “spindle localization of GFP‐CHC construct” value (“spindle localization” for short) is on record as “impaired in spindle localization”.

For the molecule “GFP‐CHC D455K: mutation of a residue that holds R481 in place”, the “spindle localization” value in test [2] was “impaired in spindle localization”.

Regarding “ELKEESFRDPAEVLGTGAEVDYLEQFGTSSFKESALRKQSLYLKFDPLLRDS [FAM‐TACC3 519–570]”, the Kd at Aurora‐A [3] (FAM‐labelled peptide, triplicate, one‐site total binding fit, legend: mean of three experiments ± SD, methods: K d ± SE, read-out: K d (binding affinity)) is 3 ± 0.2 µM.

Take “GFP‐CHC L476D, L480D: GFP-CHC mutated in the TACC3 binding site”: in test [2], the “spindle localization” value was “impaired in spindle localization”.

For the molecule “GFP‐CHC R481E: GFP-CHC mutated in the TACC3 binding site”, the “spindle localization” value in test [2] was “impaired in spindle localization”.

Regarding “TACC3^N‐ACID F525A: TACC3^N-ACID with F525A mutation (ELKEESARDPAEVLGTGAEVDYLEQFGTSSFKESALRKQSLYLKF; not fully specified (C-terminus))”, the “substrate phosphorylation on T288 (Aurora‐A D274N)” value in test [4] is “reduced”. The “stimulation of Aurora‐A activity” value in the test with Aurora‐A [1] was “twofold–threefold”. In the test with Aurora‐A [5], the Kd was over 150 µM. Also, in test [6], the “Aurora‐A autophosphorylation on T288” value is “reduced”.

As for `CC(C)[C@H](NC(=O)[C@H](CCC(=O)O)NC(=O)[C@H](C)NC(=O)[C@@H]1CCCN1C(=O)[C@H](CC(=O)O)NC(=O)[C@H](CCCNC(=N)N)NC(=O)[C@H](Cc1ccccc1)NC(=O)[C@H](CO)NC(=O)[C@H](CCC(=O)O)NC(=O)[C@H](CCC(=O)O)NC(=O)c1ccc2c(c1)C(=O)OC21c2ccc(O)cc2Oc2cc(O)ccc21)C(=O)N[C@@H](C)C(=O)NCC(=O)N[C@H](C(=O)NCC(=O)N[C@@H](C)C(=O)O)[C@@H](C)O` [L532A] (HELM PEPTIDE1{[O=C1OC2(c3ccc(O)cc3Oc3cc(O)ccc32)c2ccc(C(=O)[*:2])cc21].E.E.S.F.R.D.P.A.E.V.A.G.T.G.A}$$$$V2.0; N-terminus and C-terminus assumed), the reduced affinity at Aurora‐A [3] (relative to WT TACC3 522–536 peptide) worked out at 10 fold.

B1: CHC 1–574 F492Y (domain or fragment, UniProt Q00610 1-574, looked up)
chain: MAQILPIRFQEHLQLQNLGINPANIGFSTLTMESDKFICIREKVGEQAQVVIIDMNDPSNPIRRPISADSAIMNPASKVIALKAGKTLQIFNIEMKSKMKAHTMTDDVTFWKWISLNTVALVTDNAVYHWSMEGESQPVKMFDRHSSLAGCQIINYRTDAKQKWLLLTGISAQQNRVVGAMQLYSVDRKVSQPIEGHAASFAQFKMEGNAEESTLFCFAVRGQAGGKLHIIEVGTPPTGNQPFPKKAVDVFFPPEAQNDFPVAMQISEKHDVVFLITKYGYIHLYDLETGTCIYMNRISGETIFVTAPHEATAGIIGVNRKGQVLSVCVEEENIIPYITNVLQNPDLALRMAVRNNLAGAEELFARKFNALFAQGNYSEAAKVAANAPKGILRTPDTIRRFQSVPAQPGQTSPLLQYFGILLDQGQLNKYESLELCRPVLQQGRKQLLEKWLKEDKLECSEELGDLVKSVDPTLALSVYLRANVPNKVIQCYAETGQVQKIVLYAKKVGYTPDWIFLLRNVMRISPDQGQQFAQMLVQDEEPLADITQIVDVFMEYNLIQQCTAFLLDALKNNR
notes: source: expressed and purified as the WT protein (modified pGEX vector; GST cleaved with TEV)
As to B1, the “fold increase in Kd against WT” value in test [7] was over 6 fold.
